According to ChEMBL document CHEMBL5579852, “Promising anti-proliferative indolic benzenesulfonamides alter mechanisms with sulfonamide nitrogen substituents” (Eur J Med Chem, 2024):
The source made the active and inactive calls. No cut-off for these calls is given here.

Assays:
[1] = Antiproliferative activity against human HEK293 cells assessed as reduction in cell viability incubated for 72 hrs by CelltiterGlo luminescent assay; format: toxicity, cell-based
MES-SA [2] = experiment: Cell cycle distribution in human MES-SA cells assessed as accumulation of cells in S phase cells at 100 nM incubated for 24 hrs by Hoechst 33258 staining based flow cytometry (reference value: 27 %); format: functional
MES-SA [3] = experiment: Cell cycle distribution in human MES-SA cells assessed as accumulation of cells in G2/M phase cells at 100 nM incubated for 24 hrs by Hoechst 33258 staining based flow cytometry (reference value: 13.3 %); format: functional
[4] = Antiproliferative activity against human WM1366 cells assessed as reduction in cell viability incubated for 72 hrs by CelltiterGlo luminescent assay; conditions: WM1366, 72 h
HeLa [5] = experiment: Antiproliferative activity against human HeLa cells assessed as inhibition of cell growth incubated for 72 hrs in presence of verapamil by MTT assay; format: functional, cell-based
MES-SA [6] = experiment: Induction of apoptosis in human MES-SA cells assessed as necrotic cells at 100 nM incubated for 24 hrs by live/dead orange and TUNEL staining based flow cytometry analysis relative to control; format: functional
HT-1080 = experiment: Antiproliferative activity against human HT-1080 cells assessed as reduction in cell viability incubated for 72 hrs by CelltiterGlo luminescent assay; conditions: HT-1080, 72 h
MES-SA [7] = experiment: Induction of apoptosis in human MES-SA cells assessed as apoptotic cells at 100 nM incubated for 24 hrs by live/dead orange and TUNEL staining based flow cytometry analysis relative to control; format: functional
MES-SA [8] = experiment: Induction of apoptosis in human MES-SA cells assessed as live cells at 100 nM incubated for 24 hrs by live/dead orange and TUNEL staining based flow cytometry analysis relative to control; format: functional
MDA-MB-468 = experiment: cells; conditions: Homo sapiens, MDA-MB-468, 72 h
Description: Antiproliferative activity against human MDA-MB-468 cells assessed as reduction in cell viability incubated for 72 hrs by CelltiterGlo luminescent assay

[9] = Antiproliferative activity against human Melmet 5 cells assessed as reduction in cell viability incubated for 72 hrs by CelltiterGlo luminescent assay; conditions: Melmet 5, 72 h
cells = conditions: Homo sapiens, MDA-MB-468, 72 h
[10] = Antiproliferative activity against human Hermes 3C cells assessed as reduction in cell viability incubated for 72 hrs by CelltiterGlo luminescent assay; format: toxicity, cell-based
MES-SA [11] = experiment: Cell cycle distribution in human MES-SA cells assessed as accumulation of cells in G2 phase cells at 100 nM incubated for 24 hrs by Hoechst 33258 staining based flow cytometry (reference value: 12 %); format: functional
MCF7 = experiment: Antiproliferative activity against human MCF7 cells assessed as reduction in cell viability incubated for 72 hrs by CelltiterGlo luminescent assay; format: functional, cell-based; conditions: MCF7, 72 h
HeLa [12] = experiment: Antiproliferative activity against human HeLa cells assessed as reduction in cell viability incubated for 72 hrs by MTT assay; format: functional, cell-based
MES-SA [13] = experiment: Cell cycle distribution in human MES-SA cells assessed as accumulation of cells in G1 phase cells at 100 nM incubated for 24 hrs by Hoechst 33258 staining based flow cytometry (reference value: 60%); format: functional
BT-474 = experiment: Antiproliferative activity against human BT-474 cells assessed as reduction in cell viability incubated for 72 hrs by CelltiterGlo luminescent assay; conditions: BT-474, 72 h
MES-SA [14] = experiment: Induction of apoptosis in human MES-SA cells assessed as late apoptotic cells at 100 nM incubated for 24 hrs by live/dead orange and TUNEL staining based flow cytometry analysis relative to control; format: functional
Tubulin (Homo sapiens) = Tubulin (Homo sapiens) (UniProt P68371+Q9H4B7+P0DPH7+P68366+Q13509+Q71U36+P04350+Q3ZCM7+P07437+P68363+Q9BQE3+Q6PEY2+Q13885+Q9BVA1+Q9BUF5); experiment: Inhibition of tubulin polymerization in human MES-SA cells assessed as appearance of spherical shaped cells at 10 nM incubated for 24 hrs by DAPI staining based confocal microscopy analysis; format: cell-based
MES-SA [15] = experiment: Antiproliferative activity against human MES-SA cells assessed as reduction in cell viability incubated for 72 hrs by CelltiterGlo luminescent assay
MES-SA [16] = experiment: Induction of apoptosis in human MES-SA cells assessed as increase in caspase 3/7 activation at 100 nM by live-cell imaging based fluorescence assay; format: functional; conditions: time 3.0 day, TDE = time-dependent effect
[17] = Antiproliferative activity against human RPE-1 cells assessed as reduction in cell viability incubated for 72 hrs by CelltiterGlo luminescent assay; format: toxicity, cell-based; conditions: RPE-1 cells (TERT-RPE1)
MES-SA [18] = experiment: Cell cycle distribution in human MES-SA cells assessed as accumulation of cells in M phase cells at 100 nM incubated for 24 hrs by Hoechst 33258 staining based flow cytometry (reference value: 1.3 %); format: functional
A-375 = experiment: Antiproliferative activity against human A-375 cells assessed as reduction in cell viability incubated for 72 hrs by CelltiterGlo luminescent assay; conditions: A-375, 72 h
HeLa [19] = experiment: Antiproliferative activity against human HeLa cells assessed as inhibition of cell growth incubated for 72 hrs in absence of verapamil by MTT assay; format: functional, cell-based
CAKI-1 = experiment: Antiproliferative activity against human CAKI-1 cells assessed as reduction in cell viability incubated for 72 hrs by CelltiterGlo luminescent assay; conditions: CAKI-1, 72 h
HeLa [20] = experiment: Antiproliferative activity against human HeLa cells assessed as reduction in cell viability incubated for 72 hrs by CelltiterGlo luminescent assay; format: functional, cell-based
MES-SA [21] = experiment: Induction of apoptosis in human MES-SA cells assessed as dead cells at 100 nM incubated for 24 hrs by live/dead orange and TUNEL staining based flow cytometry analysis relative to control; format: functional

SMILES	IC50 at 72 h [1]	Activity (MES-SA [2])	Activity (MES-SA [3])	IC50 [4]	IC50 (HeLa [5])	Activity (MES-SA [6])	IC50 (HT-1080)	Activity (MES-SA [7])	Activity (MES-SA [8])	IC50 (MDA-MB-468)	IC50 [9]	IC50 (cells)	IC50 at 72 h [10]	Activity (MES-SA [11])	IC50 (MCF7)	IC50 (HeLa [12])	Activity (MES-SA [13])	IC50 (BT-474)	Activity (MES-SA [14])	inhibition (Tubulin (Homo sapiens))	also measured
COc1cc(S(=O)(=O)N(C)c2ccc3c(ccn3C)c2)cc(OC)c1OC	12.3 nM	6%	83.6%	13.5 nM	40.9 nM	3.4%	11.8 nM	5.7%	90%	24.4 nM	12.9 nM	67.6 nM	67.4 nM	10%	15.8 nM	3.2 nM	4%	34.5 nM	0.9%	Active	IC50 (MES-SA [15]): 9 nM; Activity (MES-SA [16]): Tde; IC50 at 72 h [17]: 20 nM; Activity (MES-SA [18]): 75.3%; IC50 (A-375): 17.5 nM; IC50 (HeLa [19]): 50.1 nM; IC50 (CAKI-1): 11 nM; IC50 (HeLa [20]): 14.5 nM
COc1cc(S(=O)(=O)N(C)c2ccc3c(c2)c(C(N)=O)cn3C)cc(OC)c1OC	92.2 nM	6%	83.6%	21.3 nM	18.2 nM	1.8%	14.3 nM	4.8%	91.8%	26 nM	12.2 nM	70.8 nM	31.8 nM	10%	44 nM	15 nM	4%	17.9 nM	1.6%	Active	IC50 (MES-SA [15]): 12.2 nM; Activity (MES-SA [16]): Tde; IC50 at 72 h [17]: 22.7 nM; Activity (MES-SA [18]): 75.3%; IC50 (A-375): 22.8 nM; IC50 (HeLa [19]): 24.3 nM; IC50 (CAKI-1): 29.6 nM; IC50 (HeLa [20]): 13.9 nM
COc1cc(S(=O)(=O)Nc2ccc3c(c2)c(C#N)cn3C)cc(OC)c1OC	18.2 nM	6%	83.6%	65.7 nM	29.1 nM	4.5%	12.1 nM	5.8%	88%	11.8 nM	1.6 nM	12.4 nM	87.1 nM	22%	12.1 nM	43 nM	4%	57.5 nM	1.8%	inactive	Activity (MES-SA [21]): 12%; IC50 (MES-SA [15]): 11.8 nM; Activity (MES-SA [16]): Tde; IC50 at 72 h [17]: 52.8 nM; Activity (MES-SA [18]): 67.7%; IC50 (A-375): 33.2 nM; IC50 (HeLa [19]): 43 nM; IC50 (CAKI-1): 32.4 nM; IC50 (HeLa [20]): 13.3 nM
